For 29 compounds, melting point results are on record in US20080114005A1, “Fibrate Compounds Having Ppar Agonist Activity” (Dr. Reddy's Laboratories Limited, priority 2004, published 2008).

A word on the melting point: it is the temperature of the solid-liquid transition. Compound `CCCc1nn(C)c2c(=O)n(CCNc3ccc(SC(C)(C)C(=O)OCC)cc3)c(CC)nc12` [Example 41, 2-{4-[2-(5-Ethyl-1-methyl-7-oxo-3-propyl-1,7-dihydro-pyrazolo[4,3-d]pyrimidin-6-yl)-ethylamino]-phenylsulfanyl}-2-methyl-propionic acid ethyl ester] showed a melting point of 105 to 107 °C.

Compound `CCc1nc2ccccc2c(=O)n1CCCNc1ccc(SC(C)(C)C(=O)O)cc1` [Example 10, 2-{4-[3-(2-Ethyl-4-oxo-4H-quinazolin-3-yl)-propylamino]-phenylsulfanyl}-2-methyl-propionic acid] displayed a melting point of 60 to 62 °C.

`CCCc1nn(C)c2c(=O)n(CCCOc3ccc(OC(C)(C)C(=O)O)cc3)c(CC)nc12` [Example 74, 2-{4-[3-(5-Ethyl-1-methyl-7-oxo-3-propyl-1,7-dihydro-pyrazolo[4,3-d]pyrimidin-6-yl)-propoxy]-phenoxy}-2-methyl-propionic acid] came in with a melting point of 124 to 126 °C.

The compound `CCCc1nn(C)c2c(=O)n(CCNc3ccc(OC(C)(C)C(=O)O)cc3)c(C)nc12` [Example 62, 2-{4-[2-(1,5-Dimethyl-7-oxo-3-propyl-1,7-dihydro-pyrazolo[4,3-d]pyrimidin-6-yl)-ethylamino]-phenoxy}-2-methyl-propionic acid] had a melting point of 88 to 90 °C.

Regarding `CCOC(=O)C(C)(C)Sc1ccc(OCCCn2c(C)nc3ccccc3c2=O)cc1` [Example 25, 2-Methyl-2-{4-[3-(2-methyl-4-oxo-4H-quinazolin-3-yl)-propoxy]-phenylsulfanyl}-propionic acid ethyl ester], the melting point was in the range of 162 to 164 °C.

For the compound `CCCc1nn(CC)c2c(=O)n(CCCOc3ccc(SC(C)(C)C(=O)O)cc3)c(C)nc12` [Example 28, 2-{4-[3-(1-Ethyl-5-methyl-7-oxo-3-propyl-1,7-dihydro-pyrazolo[4,3-d]pyrimidin-6-yl)-propoxy]-phenylsulfanyl}-2-methyl-propionic acid], the melting point lay within 118 to 120 °C.

`CCCc1nn(C)c2c(=O)n(CCOc3ccc(NC(C)C(=O)OCC)cc3)c(CC)nc12` (centres unmarked) [Example 19, 2-{4-[2-(5-Ethyl-1-methyl-7-oxo-3-propyl-1,7-dihydro-pyrazolo[4,3-d]pyrimidin-6-yl)-ethoxy]-phenylamino}-propionic acid ethyl ester] had a melting point of 104 to 108 °C.

The compound `CCCc1nn(C)c2c(=O)n(CCCc3cccc(OC(C)(CC)C(=O)O)c3)c(C)nc12` (centres unmarked) [Example 87, 2-{3-[3-(1,5-Dimethyl-7-oxo-3-propyl-1,7-dihydro-pyrazolo[4,3-d]pyrimidin-6-yl)-propyl]-phenoxy}-2-methyl-butyric acid] gave a melting point of 136 to 138 °C.

`CCCc1nn(C)c2c(=O)n(CCOc3ccc(SC(C)(C)C(=O)OCC)cc3)c(C)nc12` [Example 31, 2-{4-[2-(1,5-Dimethyl-7-oxo-3-propyl-1,7-dihydro-pyrazolo[4,3-d]pyrimidin-6-yl)-ethoxy]-phenylsulfanyl}-2-methyl-propionic acid ethyl ester] displayed a melting point of 106 to 108 °C.

As to `CCCc1nn(C)c2c(=O)n(CCCOc3ccc(OC(C)(C)C(=O)O)cc3)c(C)nc12` [Example 66, 2-{4-[3-(1,5-Dimethyl-7-oxo-3-propyl-1,7-dihydro-pyrazolo[4,3-d]pyrimidin-6-yl)-propoxy]-phenoxy}-2-methyl-propionic acid], the melting point was 158 to 160 °C.

Regarding `CCCc1nn(C)c2c(=O)n(CCOc3cc(O[C@@](C)(CC)C(=O)O)ccc3Cl)c(C)nc12` [Example 106, S-(−)-2-{4-Chloro-3-[2-(1,5-dimethyl-7-oxo-3-propyl-1,7-dihydro-pyrazolo[4,3-d]pyrimidin-6-yl)-ethoxy]-phenoxy}-2-methyl-butyric acid], the melting point fell in the range of 99 to 100 °C.

As to `CCCc1nn(C)c2c(=O)n(CCOc3ccc(OC4(C(=O)OCC)CCC4)cc3)c(C)nc12` [Example 90, 1-{4-[2-(1,5-Dimethyl-7-oxo-3-propyl-1,7-dihydro-pyrazolo[4,3-d]pyrimidin-6-yl)-ethoxy]-phenoxy}-cyclobutanecarboxylic acid ethyl ester], the melting point is 132 to 134 °C.

The compound `CCCc1nn(CC)c2c(=O)n(CCOc3cccc(OC(C)(C)C(=O)O)c3)c(C)nc12` [Example 93, 2-{3-[2-(1-Ethyl-5-methyl-7-oxo-3-propyl-1,7-dihydro-pyrazolo[4,3-d]pyrimidin-6-yl)-ethoxy]-phenoxy}-2-methyl-propionic acid] gave a melting point of 147 to 149 °C.

On to `CCCc1nn(C)c2c(=O)n(CCCNc3ccc(OC(C)(C)C(=O)O)cc3)c(C)nc12` [Example 68, 2-{4-[3-(1,5-Dimethyl-7-oxo-3-propyl-1,7-dihydro-pyrazolo[4,3-d]pyrimidin-6-yl)-propylamino]-phenoxy}-2-methyl-propionic acid], for which the melting point is 104 to 106 °C.

With `Cc1nc2ccccc2c(=O)n1CCOc1ccc(SC(C)(C)C(=O)O)cc1` [Example 22, 2-Methyl-2-{4-[2-(2-methyl-4-oxo-4H-quinazolin-3-yl)-ethoxy]-phenylsulfanyl}-propionic acid], the melting point was 188 to 190 °C.

The compound `CCCc1nc2ccccc2c(=O)n1CCCCNc1ccc(SC(C)(C)C(=O)O)cc1` [Example 18, 2-Methyl-2-{4-[4-(4-oxo-2-propyl-4H-quinazolin-3-yl)-butylamino]-phenylsulfanyl}-propionic acid] showed a melting point of 100 to 104 °C.

As to `CCCc1nn(C)c2c(=O)n(CCCNc3ccc(OC(C)(C)C(=O)O)cc3)c(CC)nc12` [Example 72, 2-{4-[3-(5-Ethyl-1-methyl-7-oxo-3-propyl-1,7-dihydro-pyrazolo[4,3-d]pyrimidin-6-yl)-propylamino]-phenoxy}-2-methyl-propionic acid], the melting point lay within 124 to 126 °C.

On to `CCc1nc2ccccc2c(=O)n1CCNc1ccc(SC(C)(C)C(=O)O)cc1` [Example 4, 2-{4-[2-(2-Ethyl-4-oxo-4H-quinazolin-3-yl)-ethylamino]-phenylsulfanyl}-2-methyl-propionic acid], for which the melting point is 124 to 126 °C.

For the compound `CCCc1nn(C)c2c(=O)n(CCCOc3ccc(SC(C)(C)C(=O)O)cc3)c(CC)nc12` [Example 40, 2-{4-[3-(5-Ethyl-1-methyl-7-oxo-3-propyl-1,7-dihydro-pyrazolo[4,3-d]pyrimidin-6-yl)-propoxy]-phenylsulfanyl}-2-methyl-propionic acid], the melting point lay in the range of 115 to 117 °C.

`CCCc1nn(CC)c2c(=O)n(CCOc3ccc(SC(C)(C)C(=O)O)cc3)c(CC)nc12` [Example 50, 2-{4-[2-(1,5-Diethyl-7-oxo-3-propyl-1,7-dihydro-pyrazolo[4,3-d]pyrimidin-6-yl)-ethoxy]-phenylsulfanyl}-2-methyl-propionic acid] returned a melting point of 123 to 125 °C.

In turn, `Cc1nc2ccccc2c(=O)n1CCCCNc1ccc(SC(C)(C)C(=O)O)cc1` [Example 14, 2-Methyl-2-{4-[4-(2-methyl-4-oxo-4H-quinazolin-3-yl)-butylamino]-phenylsulfanyl}-propionic acid] displayed a melting point of 100 to 102 °C.

Consider `CCCc1nn(CC)c2c(=O)n(CCCOc3ccc(SC(C)(C)C(=O)O)cc3)c(CC)nc12` [Example 30, 2-{4-[3-(1,5-Diethyl-7-oxo-3-propyl-1,7-dihydro-pyrazolo[4,3-d]pyrimidin-6-yl)-propoxy]-phenylsulfanyl}-2-methyl-propionic acid], for which the melting point was in the range of 96 to 98 °C.

`CCOC(=O)C(C)(C)Sc1ccc(OCCn2c(C)nc3ccccc3c2=O)cc1` [Example 21, 2-Methyl-2-{4-[2-(2-methyl-4-oxo-4H-quinazolin-3-yl)-ethoxy]-phenylsulfanyl}-propionic acid ethyl ester] came in with a melting point of 114 to 116 °C.

Take `CCCc1nn(C)c2c(=O)n(CCOc3ccc(SC(C)(C)C(=O)O)cc3)c(C)nc12` [Example 32, 2-{4-[2-(1,5-Dimethyl-7-oxo-3-propyl-1,7-dihydro-pyrazolo[4,3-d]pyrimidin-6-yl)-ethoxy]-phenylsulfanyl}-2-methyl-propionic acid]: the melting point was 182 to 184 °C.

Regarding `CCCc1nn(C)c2c(=O)n(CCOc3ccc(SC(C)(C)C(=O)O)cc3)c(CC)nc12` [Example 44, 2-{4-[2-(5-Ethyl-1-methyl-7-oxo-3-propyl-1,7-dihydro-pyrazolo[4,3-d]pyrimidin-6-yl)-ethoxy]-phenylsulfanyl}-2-methyl-propionic acid], the melting point was in the range of 104 to 106 °C.

In turn, `CCCc1nn(C)c2c(=O)n(CCCOc3ccc(OC(C)(C)C(=O)O)cc3)cnc12` [Example 64, 2-Methyl-2-{4-[3-(1-methyl-7-oxo-3-propyl-1,7-dihydro-pyrazolo[4,3-d]pyrimidin-6-yl)-propoxy]-phenoxy}-propionic acid] registered a melting point of 136 to 138 °C.

On to `CCc1nc2ccccc2c(=O)n1CCCOc1ccc(SC(C)(C)C(=O)O)cc1` [Example 24, 2-{4-[3-(2-Ethyl-4-oxo-4H-quinazolin-3-yl)-propoxy]-phenylsulfanyl}-2-methyl-propionic acid], for which the melting point lay within 156 to 158 °C.

`CCCc1nn(C)c2c(=O)n(CCOc3ccc(OC(C)(C)C(=O)O)cc3)c(C)nc12` [Example 60, 2-{4-[2-(1,5-Dimethyl-7-oxo-3-propyl-1,7-dihydro-pyrazolo[4,3-d]pyrimidin-6-yl)-ethoxy]-phenoxy}-2-methyl-propionic acid] had a melting point of 146 to 148 °C.

Compound `CCCc1nn(C)c2c(=O)n(CCOc3ccc(OC(C)(C)C(=O)O)cc3)cnc12` [Example 58, 2-Methyl-2-{4-[2-(1-methyl-7-oxo-3-propyl-1,7-dihydro-pyrazolo[4,3-d]pyrimidin-6-yl)-ethoxy]-phenoxy}-propionic acid] had a melting point of 144 to 146 °C.
